PubChem BioAssay AID330 (DTP/NCI, 2004)
Several values for one entry are separate records, joined by “and”; a condition that tells them apart may be missing. Equal values may be shown once. Toxic doses and inconclusive results are not listed.

Tested on: P388 leukemia ip, CD2F1 mice, survival T/C
Assay: NCI In Vivo Anticancer Drug Screen. Data for tumor model P388 Leukemia (intraperitoneal) in CD2F1 (CDF1) mice
Conditions: endpoint: median survival time, higher = longer survival
Procedure, shortened: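 Mice carrying the transplanted tumor received test compound or vehicle. Survival was recorded in each group, and the value is the treated-group measurement divided by that of the vehicle-treated control group.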

[1] = dose: 6.25 mg/kg/injection, schedule: Q01DX009 (ip), vehicle: saline
[2] = dose: 12.5 mg/kg/injection, schedule: Q01DX009 (ip), vehicle: saline
[3] = dose: 50.0 mg/kg/injection, schedule: Q01DX009 (ip), vehicle: saline
[4] = dose: 50.0 mg/kg/injection, schedule: Q01DX005 (ip), vehicle: Klucel (hydroxypropylcellulose) (HPC)
[5] = dose: 100.0 mg/kg/injection, schedule: Q01DX005 (ip), vehicle: Klucel (hydroxypropylcellulose) (HPC)
[6] = dose: 200.0 mg/kg/injection, schedule: Q01DX005 (ip), vehicle: Klucel (hydroxypropylcellulose) (HPC)
[7] = dose: 6.25 mg/kg/injection, schedule: Q01DX009 (ip), vehicle: saline with Tween-80
[8] = dose: 12.5 mg/kg/injection, schedule: Q01DX009 (ip), vehicle: saline with Tween-80
[9] = dose: 25.0 mg/kg/injection, schedule: Q01DX009 (ip), vehicle: saline with Tween-80
[10] = dose: 50.0 mg/kg/injection, schedule: Q01DX009 (ip), vehicle: saline with Tween-80
[11] = dose: 50.0 mg/kg/injection, schedule: Q01DX005 (ip), vehicle: saline with Tween-80
[12] = dose: 100.0 mg/kg/injection, schedule: Q01DX005 (ip), vehicle: saline with Tween-80
[13] = dose: 100.0 mg/kg/injection, schedule: Q01DX009 (ip), vehicle: saline
[14] = dose: 200.0 mg/kg/injection, schedule: Q01DX009 (ip), vehicle: saline

ON=C1c2cc(Cl)ccc2-c2ccc(Cl)cc21
T/C [1]: 100 % of control | T/C [2]: 97 % of control | T/C (dose: 25.0 mg/kg/injection, schedule: Q01DX009 (ip), vehicle: saline): 94 % of control | T/C [3]: 90 % of control

CN(C)c1c2c(=O)n(C)c(=O)n(C)c2nc2cccc[n+]12
T/C [4]: 95 % of control | T/C [5]: 106 % of control | T/C [6]: 104 % of control

O=c1cccc2c3ccccc3ccn12
T/C (dose: 60.0 mg/kg/injection, schedule: Q01DX005 (ip), vehicle: Klucel (hydroxypropylcellulose) (HPC)): 91 % of control | T/C (dose: 120.0 mg/kg/injection, schedule: Q01DX005 (ip), vehicle: Klucel (hydroxypropylcellulose) (HPC)): 95 % of control

O=S1(=O)CN2C=CC=CC2=N1
T/C [7]: 106 % of control | T/C [8]: 104 % of control | T/C [9]: 105 % of control | T/C [10]: 105 % of control

Cc1cc2nc(N)[nH]c2cc1C
T/C [7]: 102 % of control | T/C [8]: 103 % of control | T/C [9]: 105 % of control | T/C [10]: 103 % of control

CCCCN(CCCC)CC(O)c1cc(-c2ccc(C(F)(F)F)cc2)nc(-c2ccc(C(F)(F)F)cc2)c1 (centres undefined)
T/C [7]: 109 % of control | T/C [8]: 109 % of control | T/C [9]: 100 % of control

CC(=O)O.CC(=O)O.[S-]CCN1CCOCC1.[Zn+2]
T/C (dose: 12.5 mg/kg/injection, schedule: Q01DX009 (ip), vehicle: Klucel (hydroxypropylcellulose) (HPC)): 100 % of control | T/C (dose: 25.0 mg/kg/injection, schedule: Q01DX009 (ip), vehicle: Klucel (hydroxypropylcellulose) (HPC)): 102 % of control

CCn1c(=O)c2[nH]c(=S)[nH]c2n(C2CC2)c1=O
T/C (dose: 50.0 mg/kg/injection, schedule: Q01DX009 (ip), vehicle: Klucel (hydroxypropylcellulose) (HPC)): 97 % of control | T/C (dose: 100.0 mg/kg/injection, schedule: Q01DX009 (ip), vehicle: Klucel (hydroxypropylcellulose) (HPC)): 101 % of control | T/C (dose: 200.0 mg/kg/injection, schedule: Q01DX009 (ip), vehicle: Klucel (hydroxypropylcellulose) (HPC)): 113 % of control

O=C1C=CC(=O)N1C(=O)NCNC(=O)N1C(=O)C=CC1=O
T/C (dose: 25.0 mg/kg/injection, schedule: Q01DX005 (ip), vehicle: saline with Tween-80): 99 % of control and 107 % of control | T/C [11]: 103 % of control (2×) and 106 % of control | T/C [12]: 103 % of control and 121 % of control

COc1ccc(CN2COc3c(ccc4cccnc34)C2)cc1
T/C (dose: 100.0 mg/kg/injection, schedule: Q04DX003 (ip), vehicle: Klucel (hydroxypropylcellulose) (HPC)): 93 % of control | T/C (dose: 200.0 mg/kg/injection, schedule: Q04DX003 (ip), vehicle: Klucel (hydroxypropylcellulose) (HPC)): 93 % of control | T/C (dose: 400.0 mg/kg/injection, schedule: Q04DX003 (ip), vehicle: Klucel (hydroxypropylcellulose) (HPC)): 111 % of control

CCOP(=O)(OCC)C(C)OC (centres undefined)
T/C [3]: 100 % of control | T/C [13]: 100 % of control | T/C [14]: 106 % of control | T/C (dose: 400.0 mg/kg/injection, schedule: Q01DX009 (ip), vehicle: saline): 100 % of control

COc1cccc(/C=C\C(=O)c2ccccc(=O)c2O)c1OC
T/C (dose: 25.0 mg/kg/injection, schedule: Q01DX005 (ip), vehicle: Klucel (hydroxypropylcellulose) (HPC)): 106 % of control | T/C [4]: 101 % of control | T/C [5]: 114 % of control | T/C [6]: 107 % of control

COc1ccc(-c2nccc3cc(OC)c(OC)cc23)cc1O
T/C (dose: 25.0 mg/kg/injection, schedule: Q01DX009 (ip), vehicle: other): 100 % of control | T/C (dose: 50.0 mg/kg/injection, schedule: Q01DX009 (ip), vehicle: other): 86 % of control | T/C (dose: 100.0 mg/kg/injection, schedule: Q01DX009 (ip), vehicle: other): 86 % of control

CC(=O)N1C=CC(=C2C=CN(C(C)=O)C=C2)C=C1
T/C (dose: 5.0 mg/kg/injection, schedule: Q01DX009 (ip), vehicle: saline): 100 % of control | T/C (dose: 10.0 mg/kg/injection, schedule: Q01DX009 (ip), vehicle: saline): 88 % of control | T/C (dose: 20.0 mg/kg/injection, schedule: Q01DX009 (ip), vehicle: saline): 103 % of control

Cc1ccc(NC(=O)c2cc3ccccc3cc2O)c(C)c1.Cc1ccc(NC(=O)c2cc3ccccc3cc2O)c(C)c1.[Fe+2]
T/C [3]: 92 % of control | T/C [13]: 104 % of control | T/C [14]: 90 % of control

O=P(N1CCCC1)(N1CC1)N1CC1
T/C [1]: 109 % of control | T/C (dose: 8.3 mg/kg/injection, schedule: Q04DX003 (ip), vehicle: saline): 172 % of control | T/C [2]: 90 % of control | T/C (dose: 12.5 mg/kg/injection, schedule: Q04DX003 (ip), vehicle: saline): 209 % of control | T/C (dose: 18.7 mg/kg/injection, schedule: Q04DX003 (ip), vehicle: saline): 236 % of control

Cc1ccc(C(=Nc2ccccc2)N=S(c2ccccc2)c2ccccc2)cc1
T/C (dose: 50.0 mg/kg/injection, schedule: Q04DX003 (ip), vehicle: saline with Tween-80): 97 % of control | T/C (dose: 100.0 mg/kg/injection, schedule: Q04DX003 (ip), vehicle: saline with Tween-80): 92 % of control | T/C (dose: 200.0 mg/kg/injection, schedule: Q04DX003 (ip), vehicle: saline with Tween-80): 97 % of control

O=C(N/C(=C\c1ccc(Cl)cc1)c1nc2ccccc2s1)c1ccccc1
T/C (dose: 60.0 mg/kg/injection, schedule: Q01DX005 (ip), vehicle: saline with Tween-80): 111 % of control | T/C (dose: 120.0 mg/kg/injection, schedule: Q01DX005 (ip), vehicle: saline with Tween-80): 113 % of control | T/C (dose: 240.0 mg/kg/injection, schedule: Q01DX005 (ip), vehicle: saline with Tween-80): 113 % of control

c1ccc(OC2CCCCC2N2CCOCC2)cc1 (centres undefined)
T/C (dose: 50.0 mg/kg/injection, schedule: Q01DX009 (ip), vehicle: suspension in saline): 87 % of control | T/C (dose: 100.0 mg/kg/injection, schedule: Q01DX009 (ip), vehicle: suspension in saline): 87 % of control | T/C (dose: 200.0 mg/kg/injection, schedule: Q01DX009 (ip), vehicle: suspension in saline): 94 % of control

NNC(=O)C(O)C(O)C(=O)NN (centres undefined)
T/C (dose: 30.0 mg/kg/injection, schedule: Q01DX005 (ip), vehicle: saline): 97 % of control | T/C (dose: 30.0 mg/kg/injection, schedule: Q01DX009 (ip), vehicle: saline): 103 % of control | T/C (dose: 60.0 mg/kg/injection, schedule: Q01DX005 (ip), vehicle: saline): 100 % of control | T/C (dose: 60.0 mg/kg/injection, schedule: Q01DX009 (ip), vehicle: saline): 97 % of control | T/C (dose: 120.0 mg/kg/injection, schedule: Q01DX005 (ip), vehicle: saline): 94 % of control | T/C (dose: 120.0 mg/kg/injection, schedule: Q01DX009 (ip), vehicle: saline): 105 % of control

CC1(C)CCCC(C)(C2CCC3(C)C2C(O)CC2C4(C)CCC(O)C(C)(C)C4CCC23C)O1 (centres undefined)
T/C (dose: 8.0 mg/kg/injection, schedule: Q01DX009 (ip), vehicle: Klucel (hydroxypropylcellulose) (HPC)): 101 % of control | T/C (dose: 16.0 mg/kg/injection, schedule: Q01DX009 (ip), vehicle: Klucel (hydroxypropylcellulose) (HPC)): 96 % of control | T/C (dose: 32.0 mg/kg/injection, schedule: Q01DX009 (ip), vehicle: Klucel (hydroxypropylcellulose) (HPC)): 99 % of control | T/C (dose: 37.5 mg/kg/injection, schedule: Q01DX009 (ip), vehicle: Klucel (hydroxypropylcellulose) (HPC)): 103 % of control | T/C (dose: 64.0 mg/kg/injection, schedule: Q01DX009 (ip), vehicle: Klucel (hydroxypropylcellulose) (HPC)): 97 % of control | T/C (dose: 75.0 mg/kg/injection, schedule: Q01DX009 (ip), vehicle: Klucel (hydroxypropylcellulose) (HPC)): 94 % of control | T/C (dose: 150.0 mg/kg/injection, schedule: Q01DX009 (ip), vehicle: Klucel (hydroxypropylcellulose) (HPC)): 100 % of control | T/C (dose: 300.0 mg/kg/injection, schedule: Q01DX009 (ip), vehicle: Klucel (hydroxypropylcellulose) (HPC)): 91 % of control

CC(=O)c1nn(-c2ccccc2)c(=Nc2ccccc2)cc1C
T/C [11]: 100 % of control | T/C [12]: 101 % of control | T/C (dose: 200.0 mg/kg/injection, schedule: Q01DX005 (ip), vehicle: saline with Tween-80): 98 % of control

NC(Cc1ccc(O)cc1)C(=O)N/N=C/c1ccccc1Cl (centres undefined)
T/C [4]: 100 % of control | T/C [5]: 106 % of control

Cn1c(=O)c2nc(-c3ccccc3)nnc2n(CCO)c1=O
T/C (dose: 100.0 mg/kg/injection, schedule: Q04DX002 (ip), vehicle: Klucel (hydroxypropylcellulose) (HPC)): 105 % of control | T/C (dose: 200.0 mg/kg/injection, schedule: Q04DX002 (ip), vehicle: Klucel (hydroxypropylcellulose) (HPC)): 106 % of control | T/C (dose: 400.0 mg/kg/injection, schedule: Q04DX002 (ip), vehicle: Klucel (hydroxypropylcellulose) (HPC)): 110 % of control
